Results as given in patent US10405547B2, “Substituted cyclic amides as herbicides” (FMC Corporation, priority 2015, dated 2019).

Legend:
Assay type in all cases: in vivo
[1] = tested on: barnyardgrass (Echinochloa crus-galli); assay: Test A preemergence, barnyardgrass; settings: 0 to 100 scale (0 no effect, 100 complete control)
How it was run: (§1)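 Greenhouse assay; ~10 d; visual injury vs untreated control, scored 0 = no effect through 100 = complete control. Post-emergent seedlings at one–two leaves; pre-emergent seeds in loam/sand given a directed soil spray.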

kochia (Kochia scoparia) [2] = assay: Test A preemergence, kochia; settings: 0 to 100 scale (0 no effect, 100 complete control)
How it was run: as §1

[3] = tested on: ragweed (common ragweed, Ambrosia elatior); assay: Test A preemergence, ragweed; settings: 0 to 100 scale (0 no effect, 100 complete control)
How it was run: as §1

[4] = tested on: ryegrass, Italian (Lolium multiflorum); assay: Test A preemergence, Italian ryegrass; settings: 0 to 100 scale (0 no effect, 100 complete control)
How it was run: as §1

[5] = tested on: foxtail, giant (Setaria faberii); assay: Test A preemergence, giant foxtail; settings: 0 to 100 scale (0 no effect, 100 complete control)
How it was run: as §1

[6] = tested on: pigweed (Amaranthus retroflexus); assay: Test A preemergence, pigweed; settings: 0 to 100 scale (0 no effect, 100 complete control)
How it was run: as §1

[7] = tested on: barnyardgrass (Echinochloa crus-galli); assay: Test A postemergence, barnyardgrass; settings: visual injury, 0 to 100 scale (0 no effect, 100 complete control), approximately 10 days
How it was run: as §1

kochia (Kochia scoparia) [8] = assay: Test A postemergence, kochia; settings: visual injury, 0 to 100 scale (0 no effect, 100 complete control), approximately 10 days
How it was run: as §1

[9] = tested on: ragweed (common ragweed, Ambrosia elatior); assay: Test A postemergence, ragweed; settings: visual injury, 0 to 100 scale (0 no effect, 100 complete control), approximately 10 days
How it was run: as §1

[10] = tested on: ryegrass, Italian (Lolium multiflorum); assay: Test A postemergence, Italian ryegrass; settings: visual injury, 0 to 100 scale (0 no effect, 100 complete control), approximately 10 days
How it was run: as §1

[11] = tested on: foxtail, giant (Setaria faberii); assay: Test A postemergence, giant foxtail; settings: visual injury, 0 to 100 scale (0 no effect, 100 complete control), approximately 10 days
How it was run: as §1

[12] = tested on: pigweed (Amaranthus retroflexus); assay: Test A postemergence, pigweed; settings: visual injury, 0 to 100 scale (0 no effect, 100 complete control), approximately 10 days
How it was run: as §1

[13] = tested on: blackgrass (Alopecurus myosuroides); assay: Test A postemergence, blackgrass; settings: visual injury, 0 to 100 scale (0 no effect, 100 complete control), approximately 10 days
How it was run: as §1

[14] = tested on: galium (catchweed bedstraw, Galium aparine); assay: Test A postemergence, galium; settings: visual injury, 0 to 100 scale (0 no effect, 100 complete control), approximately 10 days
How it was run: as §1

[15] = tested on: wheat (Triticum aestivum); assay: Test A postemergence, wheat; settings: visual injury, 0 to 100 scale (0 no effect, 100 complete control), approximately 10 days
How it was run: as §1

corn (Zea mays) = assay: Test A postemergence, corn; settings: visual injury, 0 to 100 scale (0 no effect, 100 complete control), approximately 10 days
How it was run: as §1

rice (Oryza sativa) = assay: Test B flooded paddy test, rice; settings: applied to paddy water, visual rating after 13 to 15 days, scale 0 (no effect) to 100 (complete control)
How it was run: (§2)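 Ratings were visual and made relative to untreated controls after 13 to 15 greenhouse days.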

[16] = tested on: sedge, umbrella (small-flower umbrella sedge, Cyperus difformis); assay: Test B flooded paddy test, umbrella sedge; settings: applied to paddy water, visual rating after 13 to 15 days, scale 0 (no effect) to 100 (complete control)
How it was run: as §2

[17] = tested on: ducksalad (Heteranthera limosa); assay: Test B flooded paddy test, ducksalad; settings: applied to paddy water, visual rating after 13 to 15 days, scale 0 (no effect) to 100 (complete control)
How it was run: as §2

[18] = tested on: barnyardgrass (Echinochloa crus-galli); assay: Test B flooded paddy test, barnyardgrass; settings: applied to paddy water, visual rating after 13 to 15 days, scale 0 (no effect) to 100 (complete control)
How it was run: as §2

Compound	Plant response rating, Barnyardgrass ([1]; 125 g ai/ha)	Plant response rating, Barnyardgrass ([1]; 500 g ai/ha)	Plant response rating, Kochia (kochia (Kochia scoparia) [2]; 125 g ai/ha)	Plant response rating, Kochia (kochia (Kochia scoparia) [2]; 500 g ai/ha)	Plant response rating, Ragweed ([3]; 125 g ai/ha)	Plant response rating, Ragweed ([3]; 500 g ai/ha)	Plant response rating, Ryegrass, Italian ([4]; 125 g ai/ha)	Plant response rating, Ryegrass, Italian ([4]; 500 g ai/ha)	Plant response rating, Foxtail, Giant ([5]; 125 g ai/ha)	Plant response rating, Foxtail, Giant ([5]; 500 g ai/ha)	Plant response rating, Pigweed ([6]; 125 g ai/ha)	Plant response rating, Pigweed ([6]; 500 g ai/ha)	Plant response rating, Barnyardgrass ([7]; 125 g ai/ha)	Plant response rating, Barnyardgrass ([7]; 500 g ai/ha)	Plant response rating, Kochia (kochia (Kochia scoparia) [8]; 125 g ai/ha)	Plant response rating, Kochia (kochia (Kochia scoparia) [8]; 500 g ai/ha)	Plant response rating, Ragweed ([9]; 125 g ai/ha)	Plant response rating, Ragweed ([9]; 500 g ai/ha)	Plant response rating, Ryegrass, Italian ([10]; 125 g ai/ha)	Plant response rating, Ryegrass, Italian ([10]; 500 g ai/ha)	further results
O=C1NCC(c2cccc(OCc3ccccc3)c2)C1C(=O)Nc1ccc(F)cc1F (stereo not drawn) [Compound 64]	0	0	0	0	0	0	0	0	0	0	0	0	0	0	0	0	0	0	0	0	Plant response rating, Foxtail, Giant ([11]; 125 g ai/ha): 0; Plant response rating, Foxtail, Giant ([11]; 500 g ai/ha): 0; Plant response rating, Pigweed ([12]; 125 g ai/ha): 0; Plant response rating, Pigweed ([12]; 500 g ai/ha): 0; Plant response rating, Blackgrass ([13]; 125 g ai/ha): 0; Plant response rating, Blackgrass ([13]; 500 g ai/ha): 0; Plant response rating, Galium ([14]; 125 g ai/ha): 0; Plant response rating, Galium ([14]; 500 g ai/ha): 0; Plant response rating, Wheat ([15]; 125 g ai/ha): 0; Plant response rating, Wheat ([15]; 500 g ai/ha): 0; Plant response rating, Corn (corn (Zea mays); 125 g ai/ha): 0; Plant response rating, Corn (corn (Zea mays); 500 g ai/ha): 0; Plant response rating, Rice (Flood) (rice (Oryza sativa); 500 g ai/ha): 0; Plant response rating, Sedge, Umbrella (Flood) ([16]; 500 g ai/ha): 0; Plant response rating, Ducksalad (Flood) ([17]; 500 g ai/ha): 35; Plant response rating, Barnyardgrass (Flood) ([18]; 500 g ai/ha): 0
CN1CC(c2cccc(Oc3ccc(F)cc3)c2)C(C(=O)Nc2ccccc2F)C1=O (single isomer, unassigned) [Compound 45]	80	80	0	20	0	30	30	80	90	90	40	70	90	90	40	60	0	0	0	30	Plant response rating, Foxtail, Giant ([11]; 125 g ai/ha): 80; Plant response rating, Foxtail, Giant ([11]; 500 g ai/ha): 80; Plant response rating, Pigweed ([12]; 125 g ai/ha): 30; Plant response rating, Pigweed ([12]; 500 g ai/ha): 60; Plant response rating, Blackgrass ([13]; 125 g ai/ha): 30; Plant response rating, Blackgrass ([13]; 500 g ai/ha): 30; Plant response rating, Galium ([14]; 125 g ai/ha): 60; Plant response rating, Galium ([14]; 500 g ai/ha): 60; Plant response rating, Wheat ([15]; 125 g ai/ha): 0; Plant response rating, Wheat ([15]; 500 g ai/ha): 20; Plant response rating, Corn (corn (Zea mays); 125 g ai/ha): 0; Plant response rating, Corn (corn (Zea mays); 500 g ai/ha): 50; Plant response rating, Rice (Flood) (rice (Oryza sativa); 250 g ai/ha): 15; Plant response rating, Sedge, Umbrella (Flood) ([16]; 250 g ai/ha): 0; Plant response rating, Ducksalad (Flood) ([17]; 250 g ai/ha): 70; Plant response rating, Barnyardgrass (Flood) ([18]; 250 g ai/ha): 40
O=C1NCC(c2cccc(OCc3ccccc3)c2)C1C(=O)Nc1ccccc1F (stereo not drawn) [Compound 63]	0	0	0	0	0	0	0	0	0	0	0	0	0	0	0	0	0	0	0	0	Plant response rating, Foxtail, Giant ([11]; 125 g ai/ha): 0; Plant response rating, Foxtail, Giant ([11]; 500 g ai/ha): 0; Plant response rating, Pigweed ([12]; 125 g ai/ha): 0; Plant response rating, Pigweed ([12]; 500 g ai/ha): 0; Plant response rating, Blackgrass ([13]; 125 g ai/ha): 0; Plant response rating, Blackgrass ([13]; 500 g ai/ha): 0; Plant response rating, Galium ([14]; 125 g ai/ha): 0; Plant response rating, Galium ([14]; 500 g ai/ha): 0; Plant response rating, Wheat ([15]; 125 g ai/ha): 0; Plant response rating, Wheat ([15]; 500 g ai/ha): 0; Plant response rating, Corn (corn (Zea mays); 125 g ai/ha): 0; Plant response rating, Corn (corn (Zea mays); 500 g ai/ha): 0; Plant response rating, Rice (Flood) (rice (Oryza sativa); 500 g ai/ha): 0; Plant response rating, Sedge, Umbrella (Flood) ([16]; 500 g ai/ha): 0; Plant response rating, Ducksalad (Flood) ([17]; 500 g ai/ha): 35; Plant response rating, Barnyardgrass (Flood) ([18]; 500 g ai/ha): 0
O=C1NCC(c2cccc(Oc3ccccn3)c2)C1C(=O)Nc1ccccc1F (stereo not drawn) [Compound 34, N-(2-Fluorophenyl)-2-oxo-4-[3-(2-pyridinyloxy)phenyl]-3-pyrrolidinecarboxamide]	20	90	0	0	0	0	0	0	70	90	0	0	30	60	0	0	0	0	0	30	Plant response rating, Foxtail, Giant ([11]; 125 g ai/ha): 30; Plant response rating, Foxtail, Giant ([11]; 500 g ai/ha): 80; Plant response rating, Pigweed ([12]; 125 g ai/ha): 0; Plant response rating, Pigweed ([12]; 500 g ai/ha): 0; Plant response rating, Blackgrass ([13]; 125 g ai/ha): 0; Plant response rating, Blackgrass ([13]; 500 g ai/ha): 20; Plant response rating, Galium ([14]; 125 g ai/ha): 20; Plant response rating, Galium ([14]; 500 g ai/ha): 50; Plant response rating, Wheat ([15]; 125 g ai/ha): 0; Plant response rating, Wheat ([15]; 500 g ai/ha): 0; Plant response rating, Corn (corn (Zea mays); 125 g ai/ha): 0; Plant response rating, Corn (corn (Zea mays); 500 g ai/ha): 0; Plant response rating, Rice (Flood) (rice (Oryza sativa); 500 g ai/ha): 0; Plant response rating, Sedge, Umbrella (Flood) ([16]; 500 g ai/ha): 0; Plant response rating, Ducksalad (Flood) ([17]; 500 g ai/ha): 85; Plant response rating, Barnyardgrass (Flood) ([18]; 500 g ai/ha): 20
